Data taken from patent US8952024B2, “Herbicidal pyrimidone derivatives” (E I du Pont de Nemours and Company, priority 2009, dated 2015).

Tests used:
Type in all cases: in vivo
[1] = test system: pigweed (Amaranthus retroflexus); assay: Test A pre-/postemergence plant response
Method in brief: (§1)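 Formulated test chemicals (non-phytotoxic solvent, surfactant) were sprayed onto soil right after planting and simultaneously onto young plants at one to two leaves, 2 to 10 cm tall. Plants stayed in the greenhouse about ten days; injury was then visually scored against untreated controls, from 0 (no effect) to 100 (complete control).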

[2] = test system: barnyardgrass (Echinochloa crus-galli); assay: Test A pre-/postemergence plant response
Method in brief: as §1

[3] = test system: giant foxtail (Setaria faberii); assay: Test A pre-/postemergence plant response
Method in brief: as §1

[4] = test system: wheat (Triticum aestivum); assay: Test A pre-/postemergence plant response
Method in brief: as §1

[5] = test system: large crabgrass (Digitaria sanguinalis); assay: Test A pre-/postemergence plant response
Method in brief: as §1

corn (Zea mays) = assay: Test A pre-/postemergence plant response
Method in brief: as §1

[6] = test system: morningglory (Ipomoea spp.); assay: Test A pre-/postemergence plant response
Method in brief: as §1

[7] = test system: velvetleaf (Abutilon theophrasti); assay: Test A pre-/postemergence plant response
Method in brief: as §1

[8] = test system: barnyardgrass (Echinochloa crus-galli); assay: Test B flooded paddy test; conditions: for Plant response rating, Flood, Barnyardgrass: 250 g ai/ha, flooded paddy test, visual rating on 0 to 100 scale (0 no effect, 100 complete control) after 13 to 15 days; for Plant response rating, Barnyardgrass: Flood (flooded paddy test), 13 to 15 days
Method in brief: (§2)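 Rice, umbrella sedge, ducksalad and barnyardgrass were grown to the 2-leaf stage, flooded to 3 cm, and compound was applied directly to the paddy water, with that depth kept throughout. After 13 to 15 days in the greenhouse, plants were visually rated against controls on a 0 (no effect) to 100 (complete control) scale.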

rice (Oryza sativa) = assay: Test B flooded paddy test; conditions: for Plant response rating, Flood, Rice: 250 g ai/ha, flooded paddy test, visual rating on 0 to 100 scale (0 no effect, 100 complete control) after 13 to 15 days; for Plant response rating, Rice: Flood (flooded paddy test), 13 to 15 days
Method in brief: as §2

[9] = test system: ducksalad (Heteranthera limosa); assay: Test B flooded paddy test; conditions: for Plant response rating, Flood, Ducksalad: 250 g ai/ha, flooded paddy test, visual rating on 0 to 100 scale (0 no effect, 100 complete control) after 13 to 15 days; for Plant response rating, Ducksalad: Flood (flooded paddy test), 13 to 15 days
Method in brief: as §2

[10] = test system: umbrella sedge (Cyperus difformis); assay: Test B flooded paddy test; conditions: for Plant response rating, Flood, Sedge, Umbrella: 250 g ai/ha, flooded paddy test, visual rating on 0 to 100 scale (0 no effect, 100 complete control) after 13 to 15 days; for Plant response rating, Sedge, Umbrella: Flood (flooded paddy test), 13 to 15 days
Method in brief: as §2

[11] = Postemergence, 125 g ai/ha, 0 to 100 scale where 0 is no effect and 100 is complete control
[12] = Postemergence, 500 g ai/ha, visual injury, 0 to 100 scale (0 no effect, 100 complete control), approx. ten days
[13] = Preemergence, 125 g ai/ha, 0 to 100 scale, 0 = no effect, 100 = complete control
[14] = Preemergence, 500 g ai/ha, 0 to 100 scale, 0 = no effect, 100 = complete control
[15] = 62 g ai/ha, scale of 0 to 100 where 0 is no effect and 100 is complete control
[16] = 125 g ai/ha, scale 0 to 100, 0 is no effect, 100 is complete control
[17] = Flood, 31 g ai/ha, scale 0 to 100 (0 no effect, 100 complete control)
[18] = Postemergence, 125 g ai/ha, visual injury, 0 to 100 scale (0 no effect, 100 complete control), approx. ten days
[19] = Postemergence, 500 g ai/ha, 0 to 100 scale, 0 = no effect, 100 = complete control, approx. ten days
[20] = Preemergence, 500 g ai/ha, visual injury, 0 to 100 scale (0 no effect, 100 complete control), approx. ten days
[21] = 62 g ai/ha, scale 0 to 100, 0 is no effect, 100 is complete control

O=C1CCCC(O)=C1C(=O)c1cnc(-c2ccc(F)c(F)c2)n(C2CCCCC2)c1=O [Compound 198]
Plant response rating, Pigweed [1, 11]: 90
Pigweed plant response rating [1, 12]: 100
Plant response rating, Pigweed [1, 13]: 10
Plant response rating, Pigweed [1, 14]: 100
Plant response rating, Barnyardgrass [2, 11]: 70
Barnyardgrass plant response rating [2, 12]: 100
Plant response rating, Barnyardgrass [2, 13]: 0
Plant response rating, Barnyardgrass [2, 14]: 50
Plant response rating, Foxtail, Giant [3, 11]: 60
Foxtail, Giant plant response rating [3, 12]: 90
Plant response rating, Foxtail, Giant [3, 13]: 70
Plant response rating, Foxtail, Giant [3, 14]: 70
Plant response rating, Wheat [4, 11]: 0
Wheat plant response rating [4, 12]: 0
Plant response rating, Wheat [4, 13]: 0
Plant response rating, Wheat [4, 14]: 20
Plant response rating, Crabgrass, Large [5, 11]: 70
Crabgrass, Large plant response rating [5, 12]: 100
Plant response rating, Crabgrass, Large [5, 13]: 10
Plant response rating, Crabgrass, Large [5, 14]: 90
Plant response rating, Corn (corn (Zea mays); [11]): 0
Corn plant response rating (corn (Zea mays); [12]): 30
Plant response rating, Corn (corn (Zea mays); [13]): 0
Plant response rating, Corn (corn (Zea mays); [14]): 20
Plant response rating, Morningglory [6, 11]: 100
Morningglory plant response rating [6, 12]: 100
Plant response rating, Morningglory [6, 13]: 0
Plant response rating, Morningglory [6, 14]: 30
Plant response rating, Velvetleaf [7, 11]: 100
Velvetleaf plant response rating [7, 12]: 100
Plant response rating, Velvetleaf [7, 13]: 0
Plant response rating, Velvetleaf [7, 14]: 80
Plant response rating, Flood, Barnyardgrass [8]: 35
Plant response rating, Barnyardgrass [8, 15]: 0
Plant response rating, Barnyardgrass [8, 16]: 30
Barnyardgrass plant response rating [8, 17]: 0
Plant response rating, Flood, Rice (rice (Oryza sativa)): 50
Plant response rating, Rice (rice (Oryza sativa); [15]): 20
Plant response rating, Rice (rice (Oryza sativa); [16]): 20
Rice plant response rating (rice (Oryza sativa); [17]): 15
Plant response rating, Flood, Ducksalad [9]: 95
Plant response rating, Ducksalad [9, 15]: 50
Plant response rating, Ducksalad [9, 16]: 85
Ducksalad plant response rating [9, 17]: 40
Plant response rating, Flood, Sedge, Umbrella [10]: 80
Plant response rating, Sedge, Umbrella [10, 15]: 20
Plant response rating, Sedge, Umbrella [10, 16]: 80
Sedge, Umbrella plant response rating [10, 17]: 20

Cc1cccc(C)c1-n1c(-c2ccccc2)ncc(C(=O)C2=C(O)CCCC2=O)c1=O [Compound 31]
Pigweed plant response rating [1, 18]: 70
Plant response rating, Pigweed [1, 19]: 100
Plant response rating, Pigweed [1, 13]: 40
Plant response rating, Pigweed [1, 20]: 80
Barnyardgrass plant response rating [2, 18]: 10
Plant response rating, Barnyardgrass [2, 19]: 80
Plant response rating, Barnyardgrass [2, 13]: 0
Plant response rating, Barnyardgrass [2, 20]: 40
Foxtail, Giant plant response rating [3, 18]: 70
Plant response rating, Foxtail, Giant [3, 19]: 90
Plant response rating, Foxtail, Giant [3, 13]: 0
Plant response rating, Foxtail, Giant [3, 20]: 40
Wheat plant response rating [4, 18]: 0
Plant response rating, Wheat [4, 19]: 0
Plant response rating, Wheat [4, 13]: 0
Plant response rating, Wheat [4, 20]: 0
Crabgrass, Large plant response rating [5, 18]: 50
Plant response rating, Crabgrass, Large [5, 19]: 90
Plant response rating, Crabgrass, Large [5, 13]: 0
Plant response rating, Crabgrass, Large [5, 20]: 90
Corn plant response rating (corn (Zea mays); [18]): 0
Plant response rating, Corn (corn (Zea mays); [19]): 20
Plant response rating, Corn (corn (Zea mays); [13]): 0
Plant response rating, Corn (corn (Zea mays); [20]): 0
Morningglory plant response rating [6, 18]: 20
Plant response rating, Morningglory [6, 19]: 70
Plant response rating, Morningglory [6, 13]: 0
Plant response rating, Morningglory [6, 20]: 50
Velvetleaf plant response rating [7, 18]: 100
Plant response rating, Velvetleaf [7, 19]: 100
Plant response rating, Velvetleaf [7, 13]: 10
Plant response rating, Velvetleaf [7, 20]: 70
Plant response rating, Flood, Barnyardgrass [8]: 0
Plant response rating, Barnyardgrass [8, 21]: 0
Plant response rating, Flood, Rice (rice (Oryza sativa)): 0
Plant response rating, Rice (rice (Oryza sativa); [21]): 0
Plant response rating, Flood, Ducksalad [9]: 75
Plant response rating, Ducksalad [9, 21]: 60
Plant response rating, Flood, Sedge, Umbrella [10]: 75
Plant response rating, Sedge, Umbrella [10, 21]: 60
